According to PMC5464344, “Analgesic and anti‐inflammatory properties of novel, selective, and potent EP4 receptor antagonists” (Pharmacology Research & Perspectives, 2017):
Several values for one entry are separate records, joined by “and”; a condition that tells them apart may be missing. Identical values can stand only once.

Tests used:
[1] = target: T1, Rat EP4 (Rattus norvegicus, UniProt P43114); experiment: EP4 cAMP antagonist assay (HTRF), rat EP4; format: cell-based; conditions: read-out: cAMP Antagonism Rat EP4 IC50
T1 construct: expressed in transfected cells
Description: (§1) Human EP4 (GenBank Accession # AY429109, Clone ID PER0400000, UMR cDNA Resource Center, Rolla, MO) was stably expressed in HEK293 cells. Rat EP4 cDNA (GenBank Accession# NM_03276) was cloned into pcDNA 3.1 vector and stably transfected into HEK293 cells. The cell lines were maintained in DMEM (invitrogen) supplemented with 10% fetal bovine serum (FBS), 1 mmol/L sodium pyruvate, 10 mmol/L HEPES, 500 μg/mL geneticin and 2 mmol/L L‐glutamine. Confluent cultures were grown at 37°C in an atmosphere containing 5% CO2. Cells were harvested using 0.25% Trypsin‐ EDTA, suspended in freeze media at a density of 10^7cel1s/mL, and aliquots were stored in liquid nitrogen. Immediately prior to the assay, cells were thawed with DMEM and suspended in cAMP assay buffer (HBSS with 0.1% BSA, 20 mmol/L HEPES and 200 μmol/L IBMX).
(§2) CJ‐023,423 served as the positive control. To measure the cAMP levels, cAMP‐d2 conjugate and anti cAMP‐cryptate conjugate in lysis buffer were incubated with the treated cells at room temperature for 1 h. The HTRF signal was detected using an EnVision plate reader (Perkin‐Elmer, Inc., Waltham, MA, USA.) to calculate the ratio of fluorescence at 665 to 620 nm. The raw data were converted to cAMP (nmol/L) using a cAMP standard curve generated for each experiment. Data were analyzed using a 4‐parameter nonlinear logistic equation. Results are expressed as the geometric mean ± standard deviation or geometric mean ± standard error as noted.

[2] = system: dogs with osteoarthritis; set-up: method as in Rausch‐Derra et al. 2016; conditions: prospective placebo controlled study, ref Rausch‐Derra et al. 2016; cited from earlier work
[3] = target: T2, human EP2 receptor (Homo sapiens, UniProt P43116); experiment: [3H]-PGE2 receptor binding assay, EP2 membranes; conditions: HEK293 membranes; [3H]-PGE2; geometric mean ± SEM; read-out: hEP1-4 receptor binding EP2 Ki
T2 construct: host or cells: HEK293, transient; membrane preparation
Description: (§3) Receptor binding assays were done using membrane preparations of HEK 293 cells transfected with various prostanoid receptors using previously published procedure (Nakao et al. 2007). EP1 and EP4 membranes were prepared from recombinant HEK293 cells stably expressing human EPl receptor (GenBank Accession # AY275470, Clone ID PER0100000, UMR cDNA Resource Center, Rolla, MO) or human EP4 receptor. EP2 and EP3 membranes were prepared from HEK293 cells transiently transfected with human EP2 receptor (GenBank Accession # AY275471, Clone ID PER0200000, UMR cDNA Resource Center, Rolla, MO) or human EP3 receptor (GenBank Accession # AY429108, Clone ID PER3VI0000, UMR cDNA Resource Center, Rolla, MO) plasmids. Frozen cell pellets were homogenized in homogenization buffer (10 mmol/L Tris‐HCl, pH7.4, 250 mmol/L sucrose, 1 mmol/L EDTA, 0.3 mmol/L indomethacin and protease inhibitor cocktail with EDTA (Roche Molecular Biochemicals, catalog # 1691498)) using a Teflon/glass homogenizer. After a low speed centrifugation (200g for 15 min at 4°C) the supernatant was subjected to high speed centrifugation (30,000g for 60 min at 4°C). Membrane protein preparation was aliquoted and quick frozen on dry ice prior to storage at −80°C. […] Compounds were tested in a 96‐well format using a three‐fold dilution series to generate 10‐point curves. […] The binding reaction was performed in 200 μL MES buffer (10 mmol/L MES, pH 6.0, 10 mmol/L MgCl2, and l mmol/L EDTA) using polystyrene 96‐well plates. […] The membranes were harvested by filtration (TomTek harvester), washed four times with cold buffer (10 mmol/L MES, pH 6.0, 10 mmol/L MgCl2), dried in a 60°C oven, and the radioactivity was quantified as counts per min (CPM) using a TopCount detector. […] Data were analyzed using a 4‐parameter nonlinear logistic equation. K i Conversion from IC50 Values (K i = […] where [L] is the ligand concentration). Results are expressed as the geometric mean ± standard deviation or geometric mean ± standard error as noted.

[4] = target: T3, Human EP4 (Homo sapiens, UniProt P35408); experiment: EP4 cAMP antagonist assay (HTRF), human EP4; format: cell-based; conditions: HEK293 cells stably expressing human EP4; PGE2 at EC80; geometric mean ± SEM; read-out: cAMP Antagonism (hEP4) Human EP4 IC50
Description: as §1, with “Cells were harvested using 0.25% Trypsin‐ EDTA, suspended in freeze media at a density of 10^7cel1s/mL, and aliquots were stored in liquid nitrogen.” left out
as §2, with “To” for “CJ‐023,423 served as the positive control. To”, “The HTRF signal was detected using an EnVision plate reader (Perkin‐Elmer, Inc., Waltham, MA, USA.) to calculate the ratio of fluorescence at 665 to 620 nm.” left out

[5] = target: T3, Human EP4; experiment: [3H]-PGE2 receptor binding assay, EP4 membranes; set-up: expressed in transfected cells; membrane preparation; conditions: HEK293 membranes, geometric mean ± SEM, read-out: hEP1-4 receptor binding EP4 Ki
Description: as §3

[6] = target: T4, human EP3 receptor (Homo sapiens, UniProt P43115); experiment: [3H]-PGE2 receptor binding assay, EP3 membranes; conditions: HEK293 membranes, geometric mean ± SEM, read-out: hEP1-4 receptor binding EP3 Ki
T4 sequence (P43115 1-359 limits assumed): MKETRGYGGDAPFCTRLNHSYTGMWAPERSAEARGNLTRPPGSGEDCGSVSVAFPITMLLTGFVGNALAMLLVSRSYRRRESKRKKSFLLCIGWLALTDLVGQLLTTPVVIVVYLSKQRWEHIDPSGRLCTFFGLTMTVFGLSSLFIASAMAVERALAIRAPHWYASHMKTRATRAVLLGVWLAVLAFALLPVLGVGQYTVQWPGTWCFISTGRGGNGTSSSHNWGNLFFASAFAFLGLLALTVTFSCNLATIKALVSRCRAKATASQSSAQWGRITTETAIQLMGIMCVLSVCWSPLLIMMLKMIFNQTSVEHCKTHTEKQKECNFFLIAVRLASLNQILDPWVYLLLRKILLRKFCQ
Description: as §3

[7] = target: T5, human EP1 receptor (Homo sapiens, UniProt P34995); experiment: [3H]-PGE2 receptor binding assay, EP1 membranes
T5 construct: membrane preparation
T5 sequence (P34995 1-402): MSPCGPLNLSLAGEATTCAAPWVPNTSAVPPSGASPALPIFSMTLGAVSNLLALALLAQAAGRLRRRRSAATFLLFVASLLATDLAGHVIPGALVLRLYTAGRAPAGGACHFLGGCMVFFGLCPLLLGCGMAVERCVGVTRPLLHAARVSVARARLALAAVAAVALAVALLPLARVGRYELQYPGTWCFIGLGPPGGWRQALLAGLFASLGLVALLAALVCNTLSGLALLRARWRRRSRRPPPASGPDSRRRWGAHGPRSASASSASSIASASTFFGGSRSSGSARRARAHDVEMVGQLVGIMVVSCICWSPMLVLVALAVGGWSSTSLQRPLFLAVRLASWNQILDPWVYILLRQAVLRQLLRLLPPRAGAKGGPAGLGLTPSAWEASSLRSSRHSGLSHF
Description: as §3

[8] = target: T3, Human EP4; experiment: PGE2 stimulated cAMP production by HEK293/EP4 cell line; format: cell-based
Description: as §1, with “Cells were harvested using 0.25% Trypsin‐ EDTA, suspended in freeze media at a density of 10^7cel1s/mL, and aliquots were stored in liquid nitrogen.” left out
as §2, with “To” for “CJ‐023,423 served as the positive control. To”, “The HTRF signal was detected using an EnVision plate reader (Perkin‐Elmer, Inc., Waltham, MA, USA.) to calculate the ratio of fluorescence at 665 to 620 nm.” left out

[9] = system: male Lewis rats, adjuvant induced arthritis; experiment: AIA model of inflammation (paw swelling); format: in vivo; conditions: rat AIA; 10 mg/kg oral once daily 4 days; P < 0.05 by Dunnett's test
Description: (§4) For the monoiodoacetate (MIA) and adjuvant induced arthritis (AIA) studies, male Lewis rats (Envigo, Indianapolis, IN) of approximately 8 weeks of age at the time of disease induction were used. For collagen induced arthritis studies (CIA) female Lewis rats (Charles River) weighing 150–170 g were used. Rats were housed in groups of 2 or 3 per cage and maintained in a constant temperature, and on a 12 h light/12 h dark cycle. Animals had free access to food and water at all times except during data collection.
On Day 0, paw widths of both right and left paws were measured between the lateral and dorsal surfaces using calipers, and a mean paw thickness for each rat was calculated by averaging these measurements. Rats were then inoculated intradermally with 0.25 mg of adjuvant (M. Tuberculosis H37 RA from Difco) in 100 μL of mineral oil at the base of the tail to induce adjuvant disease. Eleven days post inoculation paw widths of both right and left paws were measured again, and the percent change from the Day 0 reading was calculated. […] On the fifth day after dosing started (day 15 post adjuvant injection) the rats were euthanized without further dosing and paw width measured again. The percent increase in mean paw thickness from day 11 to day 15 was then calculated as a measure of paw swelling which is indicative of the amount of inflammation in the paws measured. […]

[10] = system: female Lewis rats, collagen induced arthritis; experiment: Type-II CIA model of inflammation and autoimmunity; format: in vivo; conditions: rat CIA
Description: as §4
On day 1 of the study ankle widths are measured across the joint (left side to right side) at the thickest point with calipers and rats immunized intradermally near the base of the tail with 0.4 mL of 1 mg/mL type II collagen (Elastin Products) emulsified with incomplete Freund's adjuvant (Sigma Aldrich). A second booster injection booster of 0.4 mL of the collagen emulsion was given on day 8 of the study. Ankle widths were measured on day 8 before the collagen injection and every 2–3 days thereafter until study end. On day 11 rats were randomized into five groups of eight animals based on inflammation (redness and/or swelling) in their hind paws and body weight. Rats were then dosed with vehicle (10% Acacia plus 0.05% antifoam) and compound 3 at doses of 3, 10, and 30 mg/kg. Prednisolone was included at a dose of 10 mg/kg as a positive control. Dosing was by oral gavage once daily for seventeen days at a dose volume of 5 mL/kg. On day 28 rats were euthanized and hind paws and knee joints collected for histology. Ankles and knees were fixed in neutral buffered formalin, decalcified, embedded in paraffin, and sectioned according to standard histological methodology and the joints were then scored by a pathologist using published scoring criteria (Bendele 2001; Levine et al. 2014).

[11] = 10 mg/kg oral once daily for seventeen days

T3 sequence (P35408 whole entry): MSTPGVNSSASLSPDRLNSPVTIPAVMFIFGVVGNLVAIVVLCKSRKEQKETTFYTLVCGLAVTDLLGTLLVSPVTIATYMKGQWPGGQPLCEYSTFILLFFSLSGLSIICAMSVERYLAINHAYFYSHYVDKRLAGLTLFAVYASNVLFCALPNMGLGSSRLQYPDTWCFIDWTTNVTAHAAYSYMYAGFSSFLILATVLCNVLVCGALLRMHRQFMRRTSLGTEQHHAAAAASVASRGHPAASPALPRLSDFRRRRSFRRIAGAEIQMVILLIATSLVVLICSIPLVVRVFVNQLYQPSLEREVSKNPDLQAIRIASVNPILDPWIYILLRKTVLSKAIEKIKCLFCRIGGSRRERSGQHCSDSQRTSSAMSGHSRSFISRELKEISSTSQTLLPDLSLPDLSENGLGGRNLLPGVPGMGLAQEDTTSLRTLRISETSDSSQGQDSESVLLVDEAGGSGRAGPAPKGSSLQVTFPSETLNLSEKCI
T1 sequence (P43114 whole entry): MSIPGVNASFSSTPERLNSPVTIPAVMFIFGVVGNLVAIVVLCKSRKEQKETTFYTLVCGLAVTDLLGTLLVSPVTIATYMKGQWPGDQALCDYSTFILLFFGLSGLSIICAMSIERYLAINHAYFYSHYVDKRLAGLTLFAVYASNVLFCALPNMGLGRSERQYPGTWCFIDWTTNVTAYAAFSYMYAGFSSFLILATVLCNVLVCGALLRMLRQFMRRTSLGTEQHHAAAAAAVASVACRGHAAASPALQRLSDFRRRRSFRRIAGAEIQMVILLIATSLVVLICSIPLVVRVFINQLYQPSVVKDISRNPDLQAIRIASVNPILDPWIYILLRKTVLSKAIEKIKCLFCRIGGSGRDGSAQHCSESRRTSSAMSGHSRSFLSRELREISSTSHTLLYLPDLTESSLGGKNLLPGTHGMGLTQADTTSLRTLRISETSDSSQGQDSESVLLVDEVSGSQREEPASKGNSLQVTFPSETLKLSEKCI
T2 sequence (P43116 whole entry): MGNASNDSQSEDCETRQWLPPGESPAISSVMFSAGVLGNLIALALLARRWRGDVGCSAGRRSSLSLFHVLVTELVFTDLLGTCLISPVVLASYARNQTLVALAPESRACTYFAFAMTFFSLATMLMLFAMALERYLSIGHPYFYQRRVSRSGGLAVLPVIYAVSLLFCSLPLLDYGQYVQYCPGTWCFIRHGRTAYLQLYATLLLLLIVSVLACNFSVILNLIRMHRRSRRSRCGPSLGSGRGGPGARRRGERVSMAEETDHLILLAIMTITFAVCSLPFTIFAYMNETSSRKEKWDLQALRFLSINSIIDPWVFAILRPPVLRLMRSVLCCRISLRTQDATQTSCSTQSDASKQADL

For `CCc1nc2c(C)nc(C)cc2n1-c1ccc(CCNC(=O)NS(=O)(=O)c2ccc(C)cc2)cc1` [CJ‐023,423, N‐[({2‐[4‐(2‐ethyl‐4, 6‐dimethyl‐1H‐imidazo [4, 5–c]pyridin‐1‐yl)phenyl]ethyl}amino)carbonyl]‐4‐methylbenzenesulfonamide, reference compound], the IC50 [1] is listed as 13.1 ± 1 nM, the “efficacy for signs and symptoms of OA” value [2] is listed as “efficacious” and the Ki [3] is listed as greater than 21600 nM. The IC50 [4] was 12 nM and 11.7 nM, the Ki [5] was 449 ± 123 nM and the Ki [6] was greater than 19500 nM. It also gave a Ki ([7]; HEK293 membranes, [3H]-PGE2, geometric mean ± SEM, read-out: hEP1-4 receptor binding EP1 Ki) greater than 22900 nM.

For `CCCCC[C@H](O)/C=C/[C@H]1[C@H](O)CC(=O)[C@@H]1C/C=C\CCCC(=O)O` [PGE2, Prostaglandin (PG) E2], the “EC80 cAMP production” value ([8]; HEK 293 cells stably transfected with human EP4 cDNA, 20 min) was 0.34 nM and the “EC80 cAMP production (Fig. 2A)” value ([8]; HEK‐293 cells stably transfected with human EP4 cDNA, 20 min at room temperature) was 0.34 nM.

Work on `CCCCC[C@H](O)/C=C/[C@H]1[C@H](O)CC(=O)[C@@H]1C/C=C\CCCC(=O)O` [^3[H] PGE2] yielded a Kd ([7]; read-out: ^3[H] PGE2 Binding/kd EP1, HEK 293 membranes, homologous competition (Fig. 3D)) of 5.62 nM.

With `O=C(O)Cc1ccccc1Nc1c(Cl)cccc1Cl` [diclofenac, reference compound] the “increases in paw inflammation (swelling) compared to vehicle” value [9] was “significantly inhibited”.

With `C[C@]12C=CC(=O)C=C1CC[C@@H]1[C@@H]2[C@@H](O)C[C@@]2(C)[C@H]1CC[C@]2(O)C(=O)CO` [prednisolone, Prednisolone] the “reduction in summed scores (ankle histology)” value [10, 11] was 93%, the “reductions in all ankle scores (histology)” value [10, 11] was 87–99% and the ankle thickness ([10]; 10 mg/kg oral once daily, data not shown) was “significant reduction”. For the same compound, the “knee joint histopathology (representative photomicrograph)” value ([10]; Fig. 10 bottom panel, prednisolone 10 mg/kg, compound 3 dose not given) was “very minimal inflammation (S) and cartilage damage not visible at this magnification” and the “ankle joint histopathology (representative photomicrograph)” value ([10]; Fig. 10 top panel, prednisolone 10 mg/kg, compound 3 dose not given) was “minimal inflammation (S) and minimal cartilage damage”.
